From patent US6683114B2, “Treatment of psoriasis” (Eli Lilly and Company, priority 2000, dated 2004)
Counter-ions that a name gives are not always drawn.

Tested on: plaque-like psoriasis
Assay: Treatment of a subject with moderately severe plaque-like psoriasis (case report, Example 1)
Format: in vivo, human
Settings: person, plaque-like psoriasis of legs; 60 mg twice daily for 12 consecutive days
Experimental: The subject presented with moderately severe plaque-like psoriasis of their legs. The subject had suffered from psoriasis for most of their life, and the condition had worsened immediately prior to the present study. […] The subject was treated with 60 mg of tomoxetine hydrochloride, twice daily for 12 consecutive days.

CNCC[C@@H](Oc1ccccc1C)c1ccccc1 [tomoxetine hydrochloride, (R)-(−)-N-methyl-3-(2-methylphenoxy)-3-phenylpropylamine]
Clinical outcome of psoriasis lesions at final assessment: significant improvement
